What was measured:
4T1 cells = test: Transwell migration assay in 4T1 cells; assay type: cell-based, mouse; details: 500 nM, 24 hours migration
Method: FIG. 21A-21E. In vivo efficacy of apMNKQ2 in a mouse metastatic model with an orthotopic xenograft of 4T1 cells. (A) Effect of apMNKQ2 aptamer on the proliferation of 4T1 cells (mouse breast tumor line). 4T1 cells were seeded in p96 at a density of 1.5×10^3 cells/well. […] The graph (FIG. 21A) represents the means±SEM of 3 independent experiments. (B) Effect of apMNKQ2 aptamer on migration and invasion of 4T1 cells. Cells were seeded in p6 at a density of 2×10^5 cells/well and transfected with 500 nM apMNKQ2 at 24 hours. […] At 24 hours (migration) or 48 h (invasion), the transwell membranes were stained with Hoechst and the cells that had passed through the fluorescence microscopy were quantified. […] The number of metastases is analyzed by the reverse staining method (with Chinese ink) and the metastases grouped according to their size in four groups (0.5, 1, 2 and >2). […]
Cell migration and invasion assays were performed using transwell (Corning, USA). […] After that time, they were collected, counted, and reseeded 4×10^4 cells in 300 μl of a serum-free complete medium inside the transwell (migration) or a transwell on which a layer of 100 μL of Matrigel (Corning, USA) (invasion) had previously been polymerized. […] Finally, two washes in PBS were performed, and 5 photographs of each membrane of the transwell were taken using a fluorescence microscope (Olympus IX70). […]

[1] = Stability in human plasma; assay type: in vitro ADME; details: 37° C., 72 hours
Method: FIGS. 7A and 7B. Stability of apMNKQ2. Chip Experion™ DNA 1K Analysis Kit (BioRad, USA) for analyzing the stability of apMNKQ2 with 1 unit, 0.5 units, and 0.25 units of DNase I (FIG. 7A). In FIG. 7B, the degradation of aptamer apMNKQ2 in human plasma at 0, 6, 16, 24, 48, and 72 hours is depicted.
The previously structured aptamer apMNKQ2 (1 μg) was incubated in the presence of 1 unit, 0.5 units, and 0.25 units of the enzyme DNase I (ThermoFisher Scientific, USA) in the buffer supplied by the company (10 mM Tris HCl, pH 7.5, 2.5 mM MgCl2, 0.1 mM CaCl2)) for 5 minutes at 37° C., and the reaction was then stopped by adding 1 μL of 50 mM EDTA (ThermoFisher Scientific, USA) and heating at 65° C. for 10 minutes. […] The samples were analyzed using an Experion™ DNA 1K Analysis Kit chip (BioRad, USA). The intensity of each of the bands corresponding to the aptamers treated or not treated with DNase I or plasmas was assessed and the percentage of stability was calculated by dividing the value obtained for each of the treated aptamers by the value obtained for the untreated aptamer.
Resistance of the aptamer to degradation by DNases was analyzed by incubating […] of structured apMNKQ2 in the presence of three concentrations of DNase I (Thermo Scientific, USA), as described in the Materials and Methods section. […]

With “5′TGGGGTGGGCGGGCGGGGGTGGGGGTGGT-3′ (DNA, backbone and methylation of C not given here; further chemistry not fully specified) [apMNKQ2]” as the substance, how does the “migration of 4T1 cells” value (4T1 cells) read?
The value was “significantly decrease”.

And the “degradation in human plasma” value [1]?
Its value is “no degradation”.

— patent US12492403B2, “Aptamers and the use thereof in the treatment of cancer” (FUNDACIÓN PARA LA INVESTIGACIÓN BIOMÉDICA DEL HOSPITAL …, priority 2018, dated 2025)
